Where two headings read alike, the source gives them in different places.
Assays:
[1] = tested on: Plasmodium falciparum Dd2 asexual blood stage parasites; assay: microbe, parasite or virus in culture; parameters: species or system Plasmodium falciparum Dd2 in human erythrocytes; single determination (one 11-point concentration-response curve); conditions: 72 h
in vitro = conditions: human
[2] = Plasmodium falciparum, DD2, Erythrocyte, read-out: AC50
[3] = HepG2-A16-CD81EGFP cells, uninfected
[4] = Plasmodium falciparum, DD2, Erythrocyte

Row | Compound | AC50 [1, 2] [nM] | viability at 48 h, 1 µM (in vitro; [3]) [%] | viability at 48 h, 3 µM (in vitro; [3]) [%] | other results
1 | CCn1c(SCC(=O)NCCc2ccccc2)nc2sc3c(c2c1=O)CCN(C)C3 [MLS000332196-01] | 5310 | 96 | 87 | 
2 | COc1ccc(CNCc2cc3c(C(C)(C)C)nn(-c4ccccc4)c3[nH]c2=O)cc1 [MLS000067276-01] | 841 | 103 | 109 | 
3 | Cc1cc(Nc2ccccc2)nc2cc(O)ccc12 [MLS000586979-01] | 422 | 100 | 100 | 
4 | Cc1cc(NC(=O)CN2CCN(c3ccc(O)cc3)CC2)no1 [MLS000565196-01] | 4730 | 104 | 107 | 
5 | Cc1cc(Nc2cccc(F)c2)nc(NCc2ccccc2)n1 [MLS000589387-01] | 8410 | 98 | 87 | 
6 | O=C(CC[S+](=O)([O-])c1cc(Br)cc2c1N(C(=O)C1CC1)CC2)Nc1ccc(C(F)(F)F)cc1 [NCGC00107224-01] |  |  |  | AC50 [1, 4]: 1330 nM; viability at 66 h (in vitro; [3]): 97.7%
7 | COc1ccc(C(CCN2CCN(c3ccccc3)CC2)c2c(O)cc(OC)cc2OC)cc1 (stereo not shown) [MLS000879538-01] | 944 | 95 | 95 | 
8 | Cc1ccccc1OCC(O)CN(Cc1ccccc1O)C1CCCCC1 (stereo not shown) [MLS001002964-01] | 119 | 85 | 90 | 
9 | CN1C2CCC1/C(=C\c1ccccc1)C(=O)/C2=C\c1ccccc1 [MLS000551165-01] | 2110 |  |  | viability at 66 h (in vitro): 95.8%
10 | Oc1ccc(C2NCc3ccccc3-n3cccc32)cc1Cl (stereo not shown) [MLS000047999-01] | 1500 | 99 | 90 | 
11 | CCCCn1c2c(c(=N)c3c1CCC3)CCC2 [MLS000080126-01] | 8410 | 111 | 80 | 
12 | O=C(CC[S+](=O)([O-])c1cc(Br)cc2c1N(C(=O)C1CC1)CC2)Nc1ccc(Br)cc1F [NCGC00107188-01] |  |  |  | AC50 [1, 4]: 3350 nM; viability at 66 h (in vitro; [3]): 94%
13 | COc1ccc(NC(C)C(=O)Nc2cc(C(F)(F)F)ccc2N2CCOCC2)c(OC)c1 (stereo not shown) [MLS000334848-01] | 841 | 100 | 91 | 
14 | CCCCN(C(=O)c1ccco1)c1nnc(-c2cc(OC)c(OC)c(OC)c2)s1 [MLS000075381-01] | 2990 |  |  | viability at 66 h (in vitro; [3]): 104%
15 | CCOC(=O)C1=C(c2ccccc2)N=c2sc(=Cc3cc(OC)c(OC)c(OC)c3)c(=O)n2C1c1cccs1 (stereo not shown) [MLS000572607-01] | 5960 | 82 | 81 | 
16 | COc1ccccc1C1c2[nH]c3ccccc3c2C[C@H]2C(=O)N(C3CCN(Cc4ccccc4)CC3)CC(=O)N12 (stereo partly shown) [MLS001215063-01] | 2110 | 87 | 85 | 
17 | COCCCNc1nc2cc(OC)c(OC)cc2c2nc(-c3ccccc3)nn12 [NCGC00112853-01] | 237 | 105 | 99 | 
18 | CCCCOc1ccc(C(=O)N/C(=C\c2cccc([N+](=O)[O-])c2)C(=O)OC(C)C)cc1 [MLS000574332-01] | 2110 | 101 | 100 | 
19 | CCOc1ccc(NC2=C(OC)C(=O)c3ccccc3C2=O)cc1 [MLS000588108-01] | 376 | 101 | 98 | 

Row | Compound | AC50 [1, 2] [nM] | viability at 48 h, 1 µM (in vitro; [3]) [%] | viability at 48 h, 3 µM (in vitro; [3]) [%] | other results
20 | Oc1ccc(Br)cc1-c1cc(-c2ccc(Cl)cc2)[nH]n1 [MLS000551526-01] | 2660 | 88 | 87 | 
21 | CCN1CCN(Cc2ccc(NC(=O)c3cc(NC(=O)C(=O)c4c[nH]c5ccccc45)cc(OC)c3)cc2C(F)(F)F)CC1 [MLS003105970-01] | 668 |  |  | viability at 66 h (in vitro; [3]): 105%
22 | CCN1CCN(Cc2ccc(NC(=O)c3cc(NC(=O)c4nccnc4N)cc(OC)c3)cc2C(F)(F)F)CC1 [MLS000911568-01] | 4730 | 89 | 87 | 
23 | CC(OC(=O)CCc1cc(C(C)(C)C)c(O)c(C(C)(C)C)c1)C(=O)NC1CC1 (stereo not shown) [MLS001159754-01] | 4730 | 104 | 101 | 
24 | Cc1ccc(S(=O)(=O)NC(=O)Nc2ccc(N(C)C)cc2)cc1 [MLS001098045-01] | 1330 | 100 | 99 | 
25 | COc1ccc(NC2=C(c3ccc(OC)cc3)C(=O)c3ccccc32)cc1 [MLS000562793-01] | 5960 | 91 | 90 | 
26 | COc1ccc(C2C(C(=O)N3CCCCC3)CC(=O)N2c2ccc(OC)cc2)cc1 (stereo not shown) [MLS000519691-01] | 7500 | 85 | 91 | 
27 | Cc1nccn1CC(O)Cn1c2ccccc2c2ccccc21 (stereo not shown) [MLS000527796-01] | 8410 | 103 |  | viability at 48 h (in vitro; [3]): 103%
28 | Cc1cc(C(C)c2ccccc2)c(O)c(CN2CCOCC2)c1C (stereo not shown) [MLS000064176-01] | 2990 | 108 |  | viability at 48 h (in vitro; [3]): 108%
29 | CC(NCc1ccc(Cl)cc1Cl)C(O)c1ccccc1 (stereo not shown) [MLS000582862-01] | 4730 |  |  | viability at 48 h, 1 µM (in vitro): 120%; viability at 48 h, 3 µM (in vitro): 104%
30 | Cc1nn(-c2nnc(NCc3ccccc3)nn2)c(C)c1Br [MLS000704225-01] | 841 | 105 | 92 | 
31 | CCCCCCSc1ccc([C@H]2N[C@@](Cc3ccccc3)(C(=O)OC)[C@H]3C(=O)N(C)C(=O)[C@@H]23)cc1 [MLS001361994-01] | 4730 | 112 | 100 | 
32 | CCCc1cc(=O)oc2cc(C)cc(OCC(=O)Nc3cccnc3)c12 [MLS001160340-01] | 531 | 106 | 99 | 
33 | CCc1cc2c(Sc3nc4ccccc4s3)ncnc2s1 [MLS000544746-01] | 1500 | 104 | 101 | 
34 | Cc1c(C#N)c2ccccc2n1CCOc1ccccc1F [MLS000113080-01] | 1680 | 100 | 97 | 
35 | O=C(CN1C2=NCCCN2c2ccccc21)c1ccc(Cl)cc1Cl [MLS000662689-01] | 6680 | 99 | 94 | 
36 | CCC1(OC(=O)CN)C(=O)OCc2c1cc1n(c2=O)Cc2cc3ccccc3nc2-1 (stereo not shown) [MLS000766263-01] |  |  |  | AC50 [1, 4]: 6680 nM; viability (in vitro): 24.7%
37 | COc1ccc(CNCC(O)(c2ccc(Cl)cc2)c2ccc(Cl)cc2)cc1 [MLS000325709-01] | 1500 | 98 | 96 | 
38 | CCCCC(O)(c1ccc(CC)cc1)C(CN1CCOCC1)c1ccccc1 (stereo not shown) [MLS001198887-01] | 4730 | 88 | 85 | 

Row | Compound | AC50 [1, 2] [nM] | viability at 48 h, 1 µM (in vitro; [3]) [%] | viability at 48 h, 3 µM (in vitro; [3]) [%] | other results
39 | O=S(=O)(c1ccccc1)c1nnn2c1nc(NC1CCN(Cc3ccccc3)CC1)c1cc(Cl)ccc12 [MLS000925207-01] | 2990 |  |  | viability at 66 h (in vitro; [3]): 101%
40 | CCCn1c(SCC(=O)Nc2cc(Cl)ccc2Cl)n[nH]c1=O [MLS001002877-01] | 5310 | 97 | 94 | 
41 | c1ccc2c(NCCc3c[nH]c4ccccc34)c3ccccc3nc2c1 [MLS001195935-01] | 1880 | 92 | 83 | 
42 | O=C1/C(=C/Nc2cccc(S(=O)(=O)NC3=NCCCCC3)c2)c2ccccc2C(=O)N1Cc1ccccc1 [MLS000775273-01] | 13300 |  |  | viability at 66 h (in vitro; [3]): 93.2%
43 | Cc1nc(N2CCC(C)CC2)c2c(C)c(C(=O)Nc3ccc(C(F)(F)F)cc3)sc2n1 [MLS000682669-01] | 7500 | 108 | 99 | 
44 | N#Cc1nc(Nc2cc(F)cc(F)c2)c2ncn(CC(F)F)c2n1 [MLS002471784-01] | 4730 | 97 | 87 | 
45 | N#Cc1cc(C(=O)c2cc(Br)ccc2O)cn(C2CCCCC2)c1=O [MLS000565115-01] | 668 | 90 | 84 | 
46 | O=S(=O)(c1ccc(Cl)cc1)N1CCN(C(S)=NCC2CCCO2)CC1 (stereo not shown) [MLS001124005-01] | 1880 | 85 | 85 | 
47 | COc1ccc(C2c3[nH]c4ccccc4c3C[C@H]3C(=O)N(C4CCN(Cc5ccccc5)CC4)CC(=O)N23)c(OC)c1 (stereo partly shown) [MLS001213218-01] | 2370 | 106 | 102 | 
48 | COc1ccc(CN2CCCC(N3CCc4ccccc4C3)C2)c(O)c1 (stereo not shown) [MLS001001490-01] | 2990 | 84 | 89 | 
49 | CCCn1cc(SCC(=O)NCc2ccco2)c2ccccc21 [MLS000095681-01] | 8410 | 90 | 87 | 
50 | CCC(=O)N(C1=C(NC(C)C)C(=O)c2ccccc2C1=O)C(C)C [MLS000696323-01] | 2370 | 106 | 105 | 
51 | COc1ccc(C2=C(Nc3ccc(C)cc3)c3ccccc3C2=O)cc1 [MLS000563980-01] | 4730 | 96 | 90 | 
52 | Oc1ccc(C2NCc3ccccc3-n3cccc32)cc1Cl (stereo not shown) [MLS000878874-01] |  |  |  | AC50 ([1]; read-out: AC50): 1190 nM; viability at 66 h (in vitro): 108%
53 | OC(CNCc1cccc(Cl)c1)c1ccccc1 (stereo not shown) [MLS000674343-01] | 4730 |  |  | viability at 66 h (in vitro; [3]): 106%
54 | C=C(C)COc1ccc(-c2ncnc(C(F)(F)F)c2-c2ccccc2)c(O)c1 [MLS001216193-01] | 2370 | 104 | 97 | 
55 | CC(NCc1ccccc1)c1ccccc1O (stereo not shown) [MLS000850790-01] | 5310 |  |  | viability at 66 h (in vitro; [3]): 96.3%
56 | CCc1nc(Nc2ccc3nccnc3c2)c2oc3ccccc3c2n1 [MLS000041713-01] | 2370 | 104 | 95 | 
